Reference: the NIST ThermoML archive (doi:10.1021/je030177j)
± gives the expanded uncertainty stated by the source.

Test: mn = molality of the nth substance listed, in mol/kg
Details: Liquid, Capillary tube (Ostwald / Ubbelohde) method

O=S(=O)([O-])[O-].[Li+].[Li+] [lithium sulfate] + O
viscosity [mPa·s]
Details | 100 kPa | 10000 kPa | 20000 kPa | 30000 kPa
347.05 K, m1 = 0.1 | – | 0.4034 ± 0.0066 | 0.4061 ± 0.0067 | 0.4088 ± 0.0067
348.15 K, m1 = 0.1 | 0.401 ± 0.0066 | – | – | –
348.15 K, m1 = 0.28 | 0.433 ± 0.0071 | – | – | –
348.15 K, m1 = 0.56 | 0.495 ± 0.0081 | – | – | –
348.15 K, m1 = 0.885 | 0.582 ± 0.0095 | – | – | –
348.95 K, m1 = 0.885 | – | 0.5714 ± 0.0093 | 0.5753 ± 0.0094 | 0.5792 ± 0.0095
349.55 K, m1 = 0.56 | – | 0.4831 ± 0.0079 | 0.4864 ± 0.008 | 0.4897 ± 0.008
351.04 K, m1 = 0.28 | – | 0.415 ± 0.0068 | 0.4183 ± 0.0069 | 0.4215 ± 0.0069
356.84 K, m1 = 0.1 | – | 0.3566 ± 0.0059 | 0.359 ± 0.0059 | 0.3621 ± 0.006
358.15 K, m1 = 0.1 | 0.355 ± 0.0059 | – | – | –
358.15 K, m1 = 0.28 | 0.381 ± 0.0063 | – | – | –
358.15 K, m1 = 0.56 | 0.437 ± 0.0072 | – | – | –
358.15 K, m1 = 0.885 | 0.511 ± 0.0084 | – | – | –
359.14 K, m1 = 0.885 | – | 0.4999 ± 0.0082 | 0.5041 ± 0.0083 | 0.508 ± 0.0083
361.24 K, m1 = 0.56 | – | 0.4168 ± 0.0069 | 0.4191 ± 0.0069 | 0.4222 ± 0.0069
362.74 K, m1 = 0.28 | – | 0.3601 ± 0.006 | 0.363 ± 0.006 | 0.3662 ± 0.006
365.04 K, m1 = 0.1 | – | 0.3241 ± 0.0054 | 0.3265 ± 0.0054 | 0.3291 ± 0.0055
369.72 K, m1 = 0.885 | – | 0.4415 ± 0.0073 | 0.4452 ± 0.0073 | 0.4495 ± 0.0074
372.13 K, m1 = 0.56 | – | 0.3691 ± 0.0061 | 0.3721 ± 0.0062 | 0.3752 ± 0.0062
375.75 K, m1 = 0.28 | – | 0.3127 ± 0.0052 | 0.3153 ± 0.0052 | 0.3181 ± 0.0053
378.85 K, m1 = 0.1 | – | 0.2812 ± 0.0047 | 0.2836 ± 0.0047 | 0.2862 ± 0.0048
379.05 K, m1 = 0.885 | – | 0.3993 ± 0.0066 | 0.4028 ± 0.0067 | 0.4065 ± 0.0067
383.06 K, m1 = 0.28 | – | 0.2916 ± 0.0049 | 0.2942 ± 0.0049 | 0.2974 ± 0.005
384.05 K, m1 = 0.56 | – | 0.3274 ± 0.0054 | 0.3304 ± 0.0055 | 0.3335 ± 0.0055
384.27 K, m1 = 0.885 | – | 0.3782 ± 0.0063 | 0.382 ± 0.0063 | 0.3861 ± 0.0064
389.16 K, m1 = 0.1 | – | 0.2554 ± 0.0043 | 0.2577 ± 0.0043 | 0.2599 ± 0.0044
390.35 K, m1 = 0.56 | – | 0.3089 ± 0.0052 | 0.3124 ± 0.0052 | 0.3154 ± 0.0053
390.42 K, m1 = 0.28 | – | 0.2721 ± 0.0046 | 0.275 ± 0.0046 | 0.2784 ± 0.0047
390.72 K, m1 = 0.885 | – | 0.355 ± 0.0059 | 0.3591 ± 0.006 | 0.3633 ± 0.006
397.35 K, m1 = 0.885 | – | 0.3337 ± 0.0056 | 0.3371 ± 0.0056 | 0.3406 ± 0.0057
399.95 K, m1 = 0.28 | – | 0.2502 ± 0.0042 | 0.2528 ± 0.0043 | 0.2555 ± 0.0043
400.84 K, m1 = 0.1 | – | 0.2306 ± 0.0039 | 0.2331 ± 0.004 | 0.236 ± 0.004
401.73 K, m1 = 0.56 | – | 0.2797 ± 0.0047 | 0.2827 ± 0.0047 | 0.2855 ± 0.0048
405.24 K, m1 = 0.885 | – | 0.3115 ± 0.0052 | 0.3152 ± 0.0053 | 0.3194 ± 0.0053
409.36 K, m1 = 0.28 | – | 0.2314 ± 0.0039 | 0.234 ± 0.004 | 0.2369 ± 0.004
410.95 K, m1 = 0.1 | – | 0.2126 ± 0.0036 | 0.215 ± 0.0037 | 0.2192 ± 0.0037
411.05 K, m1 = 0.56 | – | 0.2584 ± 0.0044 | 0.2613 ± 0.0044 | 0.2644 ± 0.0045
415.13 K, m1 = 0.56 | – | 0.2502 ± 0.0042 | 0.2531 ± 0.0043 | 0.2564 ± 0.0043
415.76 K, m1 = 0.885 | – | 0.286 ± 0.0048 | 0.2901 ± 0.0049 | –
